Laboratory results: patent US20110105393A1, “METHODS FOR PROMOTING STEM CELL PROLIFERATION AND SURVIVAL” (priority 2007, published 2011)

Legend:
6-OHDA lesioned rats = experiment: Amphetamine-induced rotometry in the 6OHDA lesion model of Parkinson's disease; assay type: in vivo, rat; conditions: for recovery in rotational bias: single intraventricular injection 2 weeks after lesion, measured over next 13 weeks, n=4-7 (FIG. 13a)
Method: (§1) Pharmacological treatments.
(§2) To investigate the clinical potential of this treatment approach, the compounds were used in an animal model of Parkinson's disease. Adult rats were lesioned by intra-striatal 6-OH-DA (Przedborski, S. et al., Neuroscience 67, 631-47, 1995). After two weeks, a single injection of the compounds was administered in the lateral ventricle ipsilateral to the lesion. Amphetamine-induced rotations were measured bi-weekly throughout the experiment. Thirteen weeks after treatment they were given a single injection of fluorogold in the striatum to label the […] dopaminergic projection.

TH+ dopaminergic neurons = experiment: Tyrosine hydroxylase immunohistochemistry in striatum and substantia nigra, 6OHDA model; assay type: in vivo, rat; conditions: % ipsi- vs. contra-lateral TH optical density (FIG. 13b)
Method: as §1
Immunohistochemistry: Under deep anesthesia, animals were perfused transcardially with a rinse of saline, followed by 4% formaldehyde fixative (pH 7.4). Brains were removed immediately, stored in the fixative solution overnight and then in 30% sucrose for 3 days. Brains were frozen-sectioned at 16 μm. Immunohistochemical detection of BrdU and Hes3 was performed with an antigen-retrieval step (sections were boiled in 0.02M citrate, pH 6.0 in a microwave for 5 min, washed 3 times with distilled water, and incubated for 45 min in 2M HCl, at room temperature).
as §2
Immunohistochemistry: Under deep anesthesia, animals were perfused transcardially with a rinse of saline, followed by 4% formaldehyde fixative (pH 7.4). […]

NSC cultures = experiment: Incidence of Tie-2 spikes in NSC cultures; assay type: cell-based; conditions: for % of cells with at least one spike: NSC cultures; for spike number: thirty minutes after treatment
Method: A protrusion of the cell membrane was identified in neuronal stem cells (NSCs) when the Tie-2 receptor is concentrated. This can be visualized using antibodies that bind Tie-2. The protrusion was termed a spike. These spikes appear 30 minutes after treatment with pharmaceutical agents. […] increase spike number thirty minutes after treatment. […] Thus, a novel sub-cellular structure ahs been identified. These structures could regulate the responsiveness of cells to treatments.
Thus, a novel protrusion of the cell membrane in NSCs has been identified where the Tie-2 receptor is concentrated. This can be easily visualized using an antibody against Tie-2 that recognizes a particular epitope. […] Indeed, the spike is devoid of actin filaments or tubulin. The spikes can be detected within thirty minutes of contacting the cultures with an the factors. Thus, the spikes provide a rapid assay for the effect of pharmacologic agents.

adult mouse SVZ cultures = experiment: Survival/generation of adult mouse SVZ NSC cultures (colony and cell number); assay type: cell-based
Method: (§3) Cell culture: E13.5 cortical embryonic mouse CNS stem cells were grown as previously described (Johe, et al., Genes Dev 10, 3129-40, 1996). Cells were expanded in serum-free DMEM/F12 medium with N2 supplement and FGF2 (20 ng/ml) for 5 days under 5% oxygen conditions and were re-plated fresh or from frozen stocks at 1,000-10,000 cells per cm^2. FGF2 was included throughout the studies, unless otherwise stated. Adult rat (3-6 months old) or adult mouse (2-4 months old) SVZ NSC cultures were grown in the same medium as the fetal cultures.
Pharmacological treatments: Unless otherwise stated, the following concentrations were used: Dll4 and Ang-2 (in vitro, 500 ng/ml; in vivo 12.5 μg as a single injection), FGF2 (in vitro, 20 ng/ml), JAK inhibitor (in vitro, 200 nM; in vivo, 250 ng as a single injection), insulin (in vitro, 25 μg/ml; in vivo, 40 μg as a single injection), DAPT (1 μM), Fluorogold (0.5 μg). For the survival assays, compounds were added daily and Notch ligands every 2 days for the duration of the experiment. For the effects of kinase inhibitors on Notch activation, cells were pre-incubated for 1 h prior to Notch activation.
Hes3 mRNA is present in fetal NSC cultures under conditions that support their self-renewal but CNTF-induced differentiation (Bonni, A. et al., Science 278, 477-83, 1997; Rajan & McKay, J Neurosci 18, 3620-9, 1998): downregulates Hes3 message (Androutsellis-Theotokis, A. et al., Nature 442, 823-6, 2006). Knockout studies have shown a role of Hes3 in self-renewal (Hatakeyama, J. et al., Development 131, 5539-50, 2004). It was investigated if Hes3 mediates stem cell functions in vitro to assess its use as a functional NSC marker. Fetal (E13.5) cortical tissue was dissociated and magnetic sorting was used to isolate a cell population that expressed AC133, an established marker of NSCs (Uchida, N. et al., Proc Natl Acad Sci USA 97, 14720-5, 2000). Sorted (AC133+) cells expressed Hes3 and Sox2, another established NSC marker (Zappone, M. V. et al., Development 127, 2367-82, 2000). […] To investigate if Hes3 is a mediator of pro-survival signals for NSCs, adult mouse SVZ cultures (which respond strongly to pro-survival signals) were treated with insulin, Dll4, and a combination of the two.

Hes3 = Hes3 protein immuno-staining in fetal NSC cultures; assay type: cell-based, mouse; conditions: 2 day treatment
Method: as §3
Hes3 mRNA is present in fetal NSC cultures under conditions that support their self-renewal but CNTF-induced differentiation (Bonni, A. et al., Science 278, 477-83, 1997; Rajan & McKay, J Neurosci 18, 3620-9, 1998): downregulates Hes3 message (Androutsellis-Theotokis, A. et al., Nature 442, 823-6, 2006). Knockout studies have shown a role of Hes3 in self-renewal (Hatakeyama, J. et al., Development 131, 5539-50, 2004). It was investigated if Hes3 mediates stem cell functions in vitro to assess its use as a functional NSC marker. Fetal (E13.5) cortical tissue was dissociated and magnetic sorting was used to isolate a cell population that expressed AC133, an established marker of NSCs (Uchida, N. et al., Proc Natl Acad Sci USA 97, 14720-5, 2000). […]

Ang-1 = Ang-1 expression in fetal NSC cultures; assay type: cell-based, mouse; conditions: fetal NSCs in culture, treatment 2 days
Method: as §3
Fetal NSCs in culture express Ang-1, and treatment (2 days) with Dll4 maintained it whereas CNTF reduced it. Ang-2 expression was maintained under these conditions. […] Ang-2 induced mTOR and STAT3-S727 phosphorylation, unlike Ang-1 (FIG. 2a). Ang-1, however, induced Akt phosphorylation.

[1] = wild-type adult mouse SVZ cultures

Substance | recovery in rotational bias (6-OHDA lesioned rats) | TH+ signal in the lesioned striatum (TH+ dopaminergic neurons) | % of cells with at least one spike (NSC cultures) [%] | spike number (NSC cultures) | pathology associated with the 6OHDA lesion (single intraventricular injection 2 weeks after lesion) | risk of bleeding (summary of in vivo treatments) | colony number and overall cell number (adult mouse SVZ cultures; cells from Hes3 null mice) | colony number and overall cell number (adult mouse SVZ cultures; [1]) | Hes3 protein expression (Hes3) | Ang-1 expression (Ang-1) | amphetamine-induced rotations (behavioural recovery) (6-OHDA lesioned rats; single intra-ventricular injection 2 weeks after 6-OHDA lesion (FIG. 6a))
Ang-2: human angiopoietin-2 (623-AN) from R&D; antagonist for angiopoietin-1 at Tie2 | complete and stable recovery | increase | 2.5 | increase | hemorrhage and an enlarged ventricle | increases the risk of bleeding |  |  |  |  | 
Dll4: Notch ligand Delta-like 4; mouse Dll4 (1389-D4) from R&D | partial recovery | increase | 2.1 | increase |  |  | moderate (but significant) benefits | great increase | maintained | maintained | long-lasting behavioural recovery
insulin: insulin (Sigma, 19278), growth factor |  |  |  |  |  |  | moderate (but significant) benefits | great increase |  |  | 
